{
  "source": "paper PMC7675540",
  "about": "(ACS Omega, 2020)",
  "biological_target": "T1, carboxylesterase 1 (CES1) (Homo sapiens, UniProt P23141)",
  "T1 sequence (P23141 18-567)": "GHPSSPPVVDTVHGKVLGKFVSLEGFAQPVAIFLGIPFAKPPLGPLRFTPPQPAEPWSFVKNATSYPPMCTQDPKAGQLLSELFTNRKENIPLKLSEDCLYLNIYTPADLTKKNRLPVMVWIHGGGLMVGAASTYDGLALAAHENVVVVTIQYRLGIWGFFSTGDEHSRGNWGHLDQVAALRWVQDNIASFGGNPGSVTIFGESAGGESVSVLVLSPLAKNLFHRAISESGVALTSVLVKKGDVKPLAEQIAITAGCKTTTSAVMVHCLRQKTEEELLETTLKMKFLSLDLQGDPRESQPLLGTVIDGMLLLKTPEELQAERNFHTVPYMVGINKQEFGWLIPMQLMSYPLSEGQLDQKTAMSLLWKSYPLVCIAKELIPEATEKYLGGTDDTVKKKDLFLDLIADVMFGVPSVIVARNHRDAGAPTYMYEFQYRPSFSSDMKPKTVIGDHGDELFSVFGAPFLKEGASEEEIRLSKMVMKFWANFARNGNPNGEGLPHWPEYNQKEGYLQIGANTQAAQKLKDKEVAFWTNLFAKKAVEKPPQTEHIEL",
  "test": "LC-MS/MS of the product of PGD2-G hydrolysis",
  "assay_type": "biochemical",
  "data": [
    {"compound": "CCCCC[C@H](O)/C=C/[C@H]1C(=O)C[C@H](O)[C@@H]1C/C=C\\CCCC(=O)O", "note": "[PGD2]", "values": [
      {"measurement": "LC-MS/MS of the product of PGD2-G hydrolysis", "result": "Our data indicates that PGD2-G/PGD2 is a substrate/product dyad for CES1."}
    ]}
  ]
}
